Measured values as given in ChEMBL document CHEMBL4507259 (2021).

Experiments:
HCC70 = assay: HCC70 cell line Proliferation assay; assay type: functional, Homo sapiens; settings: Compound concentration 10 uM; time 5 day
NCI-H211 = assay: H211 cell line Proliferation assay; assay type: functional, Homo sapiens; settings: Compound concentration 10 uM; time 4 day
BJAB = assay: BJAB cell line Proliferation assay; assay type: functional, Homo sapiens; settings: Compound concentration 10 uM; time 3 day
SU-DHL10 = assay: SuDHL10 cell line Proliferation assay; assay type: functional, Homo sapiens; settings: Compound concentration 10 uM; time 3 day
OCI-Ly1 = assay: OCI Ly1 cell line Proliferation assay; assay type: functional, Homo sapiens; settings: Compound concentration 10 uM; time 3 day
Farage = assay: Farage cell line Proliferation assay; assay type: functional, Homo sapiens; settings: Compound concentration 10 uM; time 3 day
EMT6 = assay: EMT6 (mouse) cell line Proliferation assay; assay type: functional; settings: Compound concentration 10 uM; time 5 day
RL = assay: RL cell line Proliferation assay; assay type: functional, Homo sapiens; settings: Compound concentration 10 uM; time 3 day
EOL1 = assay: EOL-1 cell line Proliferation assay; assay type: functional, Homo sapiens; settings: Compound concentration 10 uM; time 3 day
SU-DHL-5 = assay: SuDHL5 cell line Proliferation assay; assay type: functional, Homo sapiens; settings: Compound concentration 10 uM; time 3 day
Granta-519 = assay: Granta 519 cell line Proliferation assay; assay type: functional, Homo sapiens; settings: Compound concentration 10 uM; time 3 day
NCI-H2444 = assay: H2444 cell line Proliferation assay; assay type: functional, Homo sapiens; settings: Compound concentration 10 uM; time 3 day
DU-145 = assay: DU-145 cell line Proliferation assay; assay type: functional, Homo sapiens; settings: Compound concentration 10 uM; time 5 day
Jurkat = assay: Jurkat cell line Proliferation assay; assay type: functional, Homo sapiens; settings: Compound concentration 10 uM; time 3 day
OCI-AML-5 = assay: OCI-AML5 cell line Proliferation assay; assay type: functional, Homo sapiens; settings: Compound concentration 10 uM; time 3 day
CA46 = assay: CA46 cell line Proliferation assay; assay type: functional, Homo sapiens; settings: Compound concentration 10 uM; time 3 day
[1] = target: Sodium-dependent noradrenaline transporter (Homo sapiens) (UniProt P23975); settings: Compound concentration 10.0 uM
Sequence of Sodium-dependent noradrenaline transporter (Homo sapiens) (P23975 whole entry): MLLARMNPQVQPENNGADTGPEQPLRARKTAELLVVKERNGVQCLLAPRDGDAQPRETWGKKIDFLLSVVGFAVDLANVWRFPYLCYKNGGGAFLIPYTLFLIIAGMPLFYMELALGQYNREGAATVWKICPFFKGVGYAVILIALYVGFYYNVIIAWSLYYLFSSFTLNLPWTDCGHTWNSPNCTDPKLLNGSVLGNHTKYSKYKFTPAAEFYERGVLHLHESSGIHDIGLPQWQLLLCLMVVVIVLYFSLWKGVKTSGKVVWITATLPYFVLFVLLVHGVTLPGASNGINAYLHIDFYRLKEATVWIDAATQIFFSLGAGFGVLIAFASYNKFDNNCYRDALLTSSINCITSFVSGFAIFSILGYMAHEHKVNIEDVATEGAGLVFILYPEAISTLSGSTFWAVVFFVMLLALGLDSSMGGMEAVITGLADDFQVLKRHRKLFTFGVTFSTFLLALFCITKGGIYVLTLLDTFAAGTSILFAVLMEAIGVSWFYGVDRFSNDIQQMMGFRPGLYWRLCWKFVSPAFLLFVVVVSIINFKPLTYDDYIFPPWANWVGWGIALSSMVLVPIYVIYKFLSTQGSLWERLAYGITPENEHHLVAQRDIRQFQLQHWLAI

DB = assay: DB cell line Proliferation assay; assay type: functional, Homo sapiens; settings: Compound concentration 10 uM; time 3 day
[2] = target: Sodium-dependent dopamine transporter (Homo sapiens, UniProt Q01959); assay: GPCRScan assay: inhibition of DAT; design: radioligand conc. used [nm] 3.6 – 16.0, parental cells stable HEK
Sequence of Sodium-dependent dopamine transporter (Q01959 whole entry): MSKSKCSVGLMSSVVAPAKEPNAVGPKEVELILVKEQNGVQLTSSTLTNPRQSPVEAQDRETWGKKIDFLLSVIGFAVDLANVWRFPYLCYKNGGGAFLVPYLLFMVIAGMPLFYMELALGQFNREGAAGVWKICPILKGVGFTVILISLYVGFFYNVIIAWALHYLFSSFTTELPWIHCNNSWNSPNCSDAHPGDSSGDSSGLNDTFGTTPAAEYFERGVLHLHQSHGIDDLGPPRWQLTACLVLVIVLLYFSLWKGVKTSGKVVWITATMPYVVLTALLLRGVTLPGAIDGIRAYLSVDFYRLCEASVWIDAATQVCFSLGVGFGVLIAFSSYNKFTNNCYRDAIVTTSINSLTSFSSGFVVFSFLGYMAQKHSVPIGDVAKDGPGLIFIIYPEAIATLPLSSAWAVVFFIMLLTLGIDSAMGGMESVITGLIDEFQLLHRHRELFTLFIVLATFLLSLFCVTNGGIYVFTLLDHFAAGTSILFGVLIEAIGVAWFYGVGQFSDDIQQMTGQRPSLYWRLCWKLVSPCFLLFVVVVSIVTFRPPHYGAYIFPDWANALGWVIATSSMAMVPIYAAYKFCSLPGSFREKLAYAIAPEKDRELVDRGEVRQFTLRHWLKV

Calu-6 = assay: Calu 6 cell line Proliferation assay; assay type: functional, Homo sapiens; settings: Compound concentration 10 uM; time 3 day
KARPAS-422 = assay: Karpas422 cell line Proliferation assay; assay type: functional, Homo sapiens; settings: Compound concentration 10 uM; time 3 day
OPM-2 = assay: OPM-2 cell line Proliferation assay; assay type: functional, Homo sapiens; settings: Compound concentration 10 uM; time 3 day
DOHH-2 = assay: DoHH2 cell line Proliferation assay; assay type: functional, Homo sapiens; settings: Compound concentration 10 uM; time 3 day
NCI-H727 = assay: H727 cell line Proliferation assay; assay type: functional, Homo sapiens; settings: Compound concentration 10 uM; time 3 day
HCC4006 = assay: HCC4006 cell line Proliferation assay; assay type: functional, Homo sapiens; settings: Compound concentration 10 uM; time 3 day
NU-DUL-1 = assay: NuDUL1 cell line Proliferation assay; assay type: functional, Homo sapiens; settings: Compound concentration 10 uM; time 3 day
MDA-MB-436 = assay: MDA_MB_436 cell line Proliferation assay; assay type: functional, Homo sapiens; settings: Compound concentration 10 uM; time 5 day
L-363 = assay: L-363 cell line Proliferation assay; assay type: functional, Homo sapiens; settings: Compound concentration 10 uM; time 3 day
MeWo = assay: MeWo cell line Proliferation assay; assay type: functional, Homo sapiens; settings: Compound concentration 10 uM; time 5 day
[3] = target: Beta-2 adrenergic receptor (Homo sapiens) (UniProt P07550); assay: beta 2 (h) CEREP ligand profiling; settings: filed as agonist, Compound concentration 10.0 uM
Sequence of Beta-2 adrenergic receptor (Homo sapiens) (P07550 whole entry, looked up): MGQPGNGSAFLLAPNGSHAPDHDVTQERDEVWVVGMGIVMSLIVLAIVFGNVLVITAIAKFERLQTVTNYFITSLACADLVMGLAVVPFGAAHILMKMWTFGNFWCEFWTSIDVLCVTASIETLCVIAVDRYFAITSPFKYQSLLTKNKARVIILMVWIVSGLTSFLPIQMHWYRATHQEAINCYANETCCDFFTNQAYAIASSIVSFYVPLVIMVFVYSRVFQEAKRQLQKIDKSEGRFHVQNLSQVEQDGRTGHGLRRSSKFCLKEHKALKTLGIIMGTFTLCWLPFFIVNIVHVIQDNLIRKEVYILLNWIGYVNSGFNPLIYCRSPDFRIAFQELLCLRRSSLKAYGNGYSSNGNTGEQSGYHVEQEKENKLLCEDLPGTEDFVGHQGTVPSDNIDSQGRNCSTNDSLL

U-2973 = assay: U2973 cell line Proliferation assay; assay type: functional, Homo sapiens; settings: Compound concentration 10 uM; time 3 day
[4] = target: Mitogen-activated protein kinase 11 (Homo sapiens) (UniProt Q15759); settings: Compound concentration 1000.0 nM
Sequence of Mitogen-activated protein kinase 11 (Homo sapiens) (Q15759 whole entry): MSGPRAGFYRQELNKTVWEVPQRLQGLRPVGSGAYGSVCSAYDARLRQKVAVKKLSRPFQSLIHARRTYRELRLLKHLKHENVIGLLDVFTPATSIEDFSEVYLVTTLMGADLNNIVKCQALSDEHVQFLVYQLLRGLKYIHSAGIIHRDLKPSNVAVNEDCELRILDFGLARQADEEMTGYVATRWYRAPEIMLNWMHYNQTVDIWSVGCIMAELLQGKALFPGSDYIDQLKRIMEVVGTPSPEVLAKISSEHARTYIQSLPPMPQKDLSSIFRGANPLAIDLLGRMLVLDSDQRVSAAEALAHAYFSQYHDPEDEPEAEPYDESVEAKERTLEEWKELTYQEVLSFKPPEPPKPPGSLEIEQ

## CNC(=O)Nc1ccc2c(c1)CC[C@@]21OC(=O)N(CC(=O)N(Cc2ccc(F)cc2)[C@@H](C)C(F)(F)F)C1=O [A-485]
HCC70
  Cell Proliferation EC50: >10000 nM
NCI-H211
  Cell Proliferation EC50: 1500 nM
BJAB
  Cell Proliferation EC50: 281.3 nM
SU-DHL10
  Cell Proliferation EC50: 916.9 nM
OCI-Ly1
  Cell Proliferation EC50: 940.5 nM
Farage
  Cell Proliferation EC50: >10000 nM
EMT6
  Cell Proliferation EC50: 498.9 nM
RL
  Cell Proliferation EC50: 1047 nM
EOL1
  Cell Proliferation EC50: >10000 nM
SU-DHL-5
  Cell Proliferation EC50: 760.6 nM
Granta-519
  Cell Proliferation EC50: 3280 nM
NCI-H2444
  Cell Proliferation EC50: 5918 nM
DU-145
  Cell Proliferation EC50: >10000 nM
Jurkat
  Cell Proliferation EC50: 4030 nM
OCI-AML-5
  Cell Proliferation EC50: 4860 nM
CA46
  Cell Proliferation EC50: 480.9 nM
[1]
  inhibition: -3.76%
DB
  Cell Proliferation EC50: 772.7 nM
[2]; read-out: Ki
  Ki: 1820 nM
[2]; read-out: pKi (converted)
  Ki: 1780 nM
Calu-6
  Cell Proliferation EC50: 8573 nM
KARPAS-422
  Cell Proliferation EC50: 245.4 nM
OPM-2
  Cell Proliferation EC50: 620 nM
DOHH-2
  Cell Proliferation EC50: 751.2 nM
NCI-H727
  Cell Proliferation EC50: 6632 nM
HCC4006
  Cell Proliferation EC50: 4640 nM
NU-DUL-1
  Cell Proliferation EC50: 478.1 nM
MDA-MB-436
  Cell Proliferation EC50: >10000 nM
L-363
  Cell Proliferation EC50: 509 nM
MeWo
  Cell Proliferation EC50: 2427 nM
[3]
  inhibition: 8%
U-2973
  Cell Proliferation EC50: 662.2 nM

## CNC(=O)Nc1ccc2c(c1)[C@@]1(CC2)OC(=O)N(CC(=O)N(Cc2ccc(F)cc2)[C@@H](C)C(F)(F)F)C1=O [A-486]
[4]
  residual activity: 100%
